Measurements taken from the supplement of paper PMC10307832.

Tests used:
Assay in all cases: relative viability (nuclei count vs DMSO), 5 days (fraction); higher = more cells survive
RAF265 + Crizotinib = compound: Cn1c(Nc2ccc(C(F)(F)F)cc2)nc2cc(Oc3ccnc(-c4ncc(C(F)(F)F)[nH]4)c3)ccc21 [RAF265] + C[C@@H](Oc1cc(-c2cnn(C3CCNCC3)c2)cnc1N)c1c(Cl)ccc(F)c1Cl [Crizotinib] (partner 1 µM)
Outline: (§1)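 Lung cancer cell lines were seeded in 1536-well plates and dosed by pin tool the next day, with either a single drug or a fixed anchor-drug dose combined with five library-drug doses (not always all listed) spaced in √10 steps. Five days later, one step fixed the cells and stained their nuclei (final 0.05% Triton X-100, 1% formaldehyde, 1 ug/ml Hoechst), and nuclei were counted on 4× images. Relative viability is the nuclei count in treated wells divided by the count in vehicle wells, and each value is the median of duplicate plates.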

Doramapimod + Olaparib = compound: Cc1ccc(-n2nc(C(C)(C)C)cc2NC(=O)Nc2ccc(OCCN3CCOCC3)c3ccccc23)cc1 [Doramapimod] + O=C(c1cc(Cc2n[nH]c(=O)c3ccccc23)ccc1F)N1CCN(C(=O)C2CC2)CC1 [Olaparib] (partner 8 µM)
Outline: as §1

RAF265 + Linsitinib = compound: Cn1c(Nc2ccc(C(F)(F)F)cc2)nc2cc(Oc3ccnc(-c4ncc(C(F)(F)F)[nH]4)c3)ccc21 [RAF265] + C[C@]1(O)C[C@@H](c2nc(-c3ccc4ccc(-c5ccccc5)nc4c3)c3c(N)nccn32)C1 [Linsitinib] (partner 1 µM)
Outline: as §1

IPA-3 + Decitabine = compound: C1=CC=C2C(=C1)C=CC(=C2SSC3=C(C=CC4=CC=CC=C43)O)O [IPA-3] + Nc1ncn([C@H]2C[C@H](O)[C@@H](CO)O2)c(=O)n1 [Decitabine] (partner 2 µM)
Outline: as §1

Cell Line	relative viability (RAF265 + Crizotinib; first compound 0.01 µM)	relative viability (RAF265 + Crizotinib; first compound 0.03162 µM)	relative viability (RAF265 + Crizotinib; first compound 0.1 µM)	relative viability (RAF265 + Crizotinib; first compound 0.3162 µM)	relative viability (RAF265 + Crizotinib; first compound 1 µM)	relative viability (Doramapimod + Olaparib; first compound 0.02 µM)	relative viability (Doramapimod + Olaparib; first compound 0.06325 µM)	relative viability (Doramapimod + Olaparib; first compound 0.2 µM)	relative viability (Doramapimod + Olaparib; first compound 0.6325 µM)	relative viability (Doramapimod + Olaparib; first compound 2 µM)	relative viability (RAF265 + Linsitinib; first compound 0.01 µM)	relative viability (RAF265 + Linsitinib; first compound 0.03162 µM)	relative viability (RAF265 + Linsitinib; first compound 0.1 µM)	relative viability (RAF265 + Linsitinib; first compound 0.3162 µM)	relative viability (RAF265 + Linsitinib; first compound 1 µM)	relative viability (IPA-3 + Decitabine; first compound 0.2 µM)	relative viability (IPA-3 + Decitabine; first compound 0.6325 µM)	relative viability (IPA-3 + Decitabine; first compound 2 µM)	relative viability (IPA-3 + Decitabine; first compound 6.325 µM)	relative viability (IPA-3 + Decitabine; first compound 20 µM)
LCLC-103H	1.06	1.05	1.07	1	0.713	0.741	0.786	0.745	0.758	0.764	1.03	1.14	1.1	0.944	0.641	0.703	0.684	0.749	0.748	0.638
LK-2	0.203	0.222	0.239	0.237	0.223	0.656	0.778	0.656	0.493	0.397	0.615	0.555	0.67	0.671	0.351	0.297	0.333	0.32	0.442	0.346
LOU-NH91	0.758	0.728	0.752	0.529	0.59	0.987	0.929	0.902	1	0.737	1.03	0.818	1.03	0.599	0.644	0.821	0.856	0.815	0.82	0.888
LU99A	0.576	0.467	0.521	0.344	0.255	0.273	0.304	0.27	0.259	0.256	0.471	0.423	0.323	0.308	0.273	0.974	0.813	0.881	0.867	0.879
LXF-289	0.849	0.81	0.872	0.677	0.684	1.03	1.01	1.05	1.08	1.02	0.916	0.919	0.947	0.815	0.792	0.368	0.368	0.345	0.37	0.422
NCI-H23	0.623	0.502	0.473	0.388	0.248	0.397	0.352	0.417	0.335	0.311	0.668	0.541	0.437	0.321	0.202	0.285	0.313	0.319	0.329	0.299
NCI-H322M	0.897	0.839	0.866	0.281	0.282	0.849	0.827	0.864	0.857	0.884	0.929	0.807	0.662	0.377	0.256	0.679	0.654	0.749	0.663	0.718
NCI-H358	0.618	0.597	0.5	0.395	0.23	0.54	0.565	0.516	0.676	0.511	0.843	0.565	0.443	0.37	0.267	0.229	0.199	0.196	0.2	0.108
NCI-H441	0.779	0.656	0.715	0.73	0.473	0.45	0.501	0.45	0.609	0.356	0.617	0.495	0.415	0.3	0.389	0.268	0.257	0.205	0.234	0.21
NCI-H460	0.972	0.904	0.743	–	0.881	0.453	0.431	0.422	0.459	0.419	0.812	0.692	0.647	–	0.378	0.65	0.41	0.492	0.465	0.324
NCI-H520	0.632	0.762	0.774	0.771	0.607	0.336	0.359	0.354	0.364	0.305	0.941	0.949	0.939	0.912	0.631	0.528	0.523	–	0.413	0.453
NCI-H596	0.933	0.938	0.962	0.924	0.711	0.747	0.695	0.749	0.73	0.788	1.05	0.97	1.1	1.09	0.657	1.09	0.984	1.06	0.963	1.08
NCI-H647	1.07	0.938	0.873	0.541	0.689	0.475	0.488	0.509	0.443	0.444	0.801	0.991	1.01	0.574	0.519	0.502	0.396	0.397	0.206	0.134
NCI-H650	0.886	0.722	0.684	0.808	0.317	0.468	0.47	0.403	0.413	0.395	0.972	0.845	0.666	0.442	0.375	0.297	0.33	0.292	0.294	0.348
NCI-H661	0.931	0.747	1.04	0.906	0.716	0.797	0.756	0.785	0.717	0.75	0.589	0.412	0.686	0.455	0.33	0.664	0.548	0.528	0.543	0.528
NCI-H727	0.8	0.727	0.967	0.598	0.283	0.711	0.723	0.772	0.726	0.595	0.38	0.26	0.254	0.327	0.132	0.783	0.916	0.71	0.867	0.997
